The results in this text go back to patent publication US20200331950A1, “SGLTS INHIBITOR AND APPLICATION THEREOF” (SHANDONG DANHONG PHARMACEUTICAL CO., LTD., priority 2018, published 2020).

Marks after values point to notes of the source that are not given here.

For series [1], the target named is T1, Human-SGLT2 (Homo sapiens, UniProt P31639).
T1 sequence (P31639 1-672): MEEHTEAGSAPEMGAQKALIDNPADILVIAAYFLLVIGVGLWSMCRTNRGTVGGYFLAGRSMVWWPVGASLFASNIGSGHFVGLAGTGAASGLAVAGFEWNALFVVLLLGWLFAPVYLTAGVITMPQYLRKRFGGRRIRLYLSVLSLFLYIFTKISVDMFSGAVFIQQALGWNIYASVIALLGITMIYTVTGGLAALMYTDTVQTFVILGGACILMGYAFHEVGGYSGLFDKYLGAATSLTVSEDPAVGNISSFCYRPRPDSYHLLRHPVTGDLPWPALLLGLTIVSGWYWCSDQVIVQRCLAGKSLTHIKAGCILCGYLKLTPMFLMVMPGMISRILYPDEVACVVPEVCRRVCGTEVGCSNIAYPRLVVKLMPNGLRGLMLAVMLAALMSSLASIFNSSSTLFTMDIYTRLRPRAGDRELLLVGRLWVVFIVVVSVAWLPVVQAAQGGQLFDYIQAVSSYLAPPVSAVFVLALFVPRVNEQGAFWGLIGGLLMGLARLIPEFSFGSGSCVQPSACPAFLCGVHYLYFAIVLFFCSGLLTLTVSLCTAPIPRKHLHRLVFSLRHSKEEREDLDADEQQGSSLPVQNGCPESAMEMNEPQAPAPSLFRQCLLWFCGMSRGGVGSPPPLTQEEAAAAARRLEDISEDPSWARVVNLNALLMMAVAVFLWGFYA
Nature of the series: SGLT2 glucose transport test ([14C]-labeled methyl a-D-glucopyranoside uptake). Type of series: cell-based. Conditions: cells stably expressing Human-SGLT2; 37° C., 2 hours. As for the experimental part:
Biological Activity Experiment 2: SGLT2 Glucose Transport Test.
(§1) 1. Purpose of the Experiment:
The effect of the compound on the glucose transport activity of SGLT2 transporter was detected by measuring the amount of [^14C]-labeled glucose entering cells with high expression of Human-SGLT2.
The cells stably expressing Human-SGLT2 were constructed by Wuxi AppTec(Shanghai) Co., Ltd. SGLT2 cells were laid in 96-well cell culture plate (Greiner) and cultured overnight in 5% CO2 environment at 37° C.
2.2. SGLT2 Glucose Transport Test.
(§2) 1) Experimental buffer, including: 10 mM 4-hydroxyethylpiperazineethanesulfonic acid (HEPES), 1.2 mM magnesium chloride (MgCl2), 4.7 mM potassium chloride (KCl), 2.2 mM calcium chloride (CaCl2) and 120 mM sodium chloride (NaCl).
2) Stop buffer, including: 10 mM 4-hydroxyethylpiperazineethanesulfonic acid (HEPES), 1.2 mM magnesium chloride (MgCl2), 4.7 mM potassium chloride (KCl), 2.2 mM calcium chloride (CaCl2), 120 mM sodium chloride (NaCl) and 1 μM LX4211.
3) Compounds were serially diluted in 100% dimethyl sulfoxide (DMSO) starting at 10 uM and make a 5-folds, 8 points serials compound dilutions.
4) 6 μM [^14C]-labeled methyl a-D-lucopyranosid was prepared with the experimental buffer.
5) The cells were treated with 49 uL of the experimental buffer, 1 μL of the gradient diluted compound and 50 μL of the 6 μM [^14C]-labeled methyl a-D-lucopyranosid solution at 37° C. for 2 hours.
6) The solution was sucked out from holes, and the cells were rinsed with the stop buffer for 3 times.
7) The cells were lysed with 50 ul of 10% sodium hydroxide solution, the cell lysate was sucked into a scintillation tube, into which 2 mL scintillation solution was then added.
8) The data were read with an isotope detector Tricarb.
9) The IC50 value of the tested compound was obtained by the calculation formula: log(inhibitor) vs. response—Variable slope, using GraphPad Prism 5.0 software.

Series [2] can be described thus: In vivo pharmacokinetics in rats. Conditions: male SD rats. An excerpt:
Study on the In Vivo Pharmacokinetics in Rats
The purpose of the experiment: Male SD rats were used as test animals and were given a single administration to determine the plasma concentration of the compound and evaluate the pharmacokinetic behavior.
Experimental method: Six healthy adult male SD rats were divided into 2 groups, with 3 rats in an intravenous injection group and 3 rats in an oral administration group. In the intravenous injection group, the test compound was mixed with an appropriate amount of vehicle (10% N-methyl pyrrolidone (NMP)/10% polyethylene glycol-15 hydroxystearate (available from solutol)/80% water), then vortexed and sonicated to prepare 0.2 mg/mL clear solution, which was filtered by microporous membrane. In the oral administration group, 10% N-methyl pyrrolidone (NMP)/10% polyethylene glycol-15 hydroxy stearate (available from solutol)/80% water was used as a vehicle and mixed with the test compound, then vortexed and sonicated to prepare 0.40 mg/mL clear solution. The rats were given intravenous administration at a dose of 1 mg/kg or oral administration at a dose of 2 mg/kg. Whole blood was collected at a certain period of time to prepare the plasma. The drug concentration of the plasma was analyzed by LC-MS/MS method, and the pharmacokinetic parameters were calculated using Phoenix WinNonlin software (Pharsight Company, USA).

The subject of series [3] is SD rats. Nature of the series: Oral glucose tolerance test (OGTT) in rats, first time. Type of series: in vivo. Conditions: first study, male SD rats, 10 mg/kg single intragastric administration. As for the experimental part: Experimental Example 3. Study on In Vivo Efficacy of Oral Glucose Tolerance Test (OGTT) in Rats: Study on the In Vivo Efficacy of Oral Glucose Tolerance Test (OGTT) in Rats for the First Time
(§3) The experimental animals were allowed to adapt to the environment in the animal room for one week after they arrived.
(§4) The animals fasted in the metabolic cage for 18 hours, then were given drugs or vehicle (2 ml/kg) according to the above table, and subsequently were immediately given 50% glucose solution (2 g/kg, 4 ml/kg).
(§5) 2 hours after the administration of glucose solution, feed intake was restored. Blood samples were taken at 0 min, 15 min, 30 min, 45 min, 60 min and 120 min respectively, and urine samples were collected at 0-24 h to test blood glucose, urine glucose (mg/200 g) and urine volume respectively.
(§6) All values are represented as averages. Statistical analysis was performed using Graphpad Prism 6 one-way analysis of variance and Tukey's multiple comparison test. P value of less than 0.05 is considered statistically significant.

For series [4], the system named is SD rats. Nature of the series: Oral glucose tolerance test (OGTT) in rats, second time. Type of series: in vivo. Conditions: second study, male SD rats, 10 mg/kg single intragastric administration. On the procedure: Study on the In Vivo Efficacy of Oral Glucose Tolerance Test (OGTT) in Rats for the Second Time:
as §3, §4, §5, §6

Series [5] addresses T2, Human-SGLT1 (Homo sapiens, UniProt P13866).
T2 sequence (P13866 1-664): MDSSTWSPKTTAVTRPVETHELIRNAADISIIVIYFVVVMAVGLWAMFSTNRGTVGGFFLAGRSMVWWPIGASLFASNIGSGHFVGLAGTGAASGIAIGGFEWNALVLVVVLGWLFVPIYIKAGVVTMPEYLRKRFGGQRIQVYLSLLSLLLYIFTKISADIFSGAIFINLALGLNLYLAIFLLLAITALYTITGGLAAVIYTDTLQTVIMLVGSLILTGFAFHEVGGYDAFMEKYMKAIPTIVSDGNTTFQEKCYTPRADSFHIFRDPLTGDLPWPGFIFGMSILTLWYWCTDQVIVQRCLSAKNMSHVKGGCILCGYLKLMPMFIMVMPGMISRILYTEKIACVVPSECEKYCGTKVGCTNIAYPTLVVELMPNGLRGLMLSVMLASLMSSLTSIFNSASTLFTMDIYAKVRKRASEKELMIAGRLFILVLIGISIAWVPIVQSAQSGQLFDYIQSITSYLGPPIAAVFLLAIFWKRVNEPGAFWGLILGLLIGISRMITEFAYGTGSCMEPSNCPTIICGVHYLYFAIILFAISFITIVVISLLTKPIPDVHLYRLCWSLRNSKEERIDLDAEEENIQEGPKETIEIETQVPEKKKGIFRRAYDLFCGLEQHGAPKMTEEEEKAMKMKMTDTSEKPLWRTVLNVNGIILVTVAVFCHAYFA
Nature of the series: SGLT1 glucose transport test ([14C]-labeled methyl a-D-glucopyranoside uptake). Type of series: cell-based. Conditions: cells stably expressing Human-SGLT1; 37° C., 2 hours.
Source text: Biological Activity Experiment 1: SGLT1 Glucose Transport Test.
as §1
The effect of the compound on the glucose transport activity of SGLT1 transporter was detected by measuring the amount of [′C]-labeled glucose entering cells with high expression of Human-SGLT1.
The cells stably expressing Human-SGLT1 were constructed by Wuxi AppTec(Shanghai) Co., Ltd. SGLT1 cells were laid in Cytostar-T (PerkinElmer) 96-well cell culture plate and cultured overnight in 5% CO2 environment at 37° C.
2.2. SGLT1 Glucose Transport Test.
as §2
2) Compounds were serially diluted in 100% dimethyl sulfoxide (DMSO) starting at 1 mM and make a 5-folds, 8 points serials compound dilutions.
3) 3 μM [′^4C]-labeled methyl a-D-glucopyranoside was prepared with the experimental buffer.
4) The cells were treated with 49 uL of the experimental buffer, 1 μL of the gradient diluted compound and 50 μL of the 3 μM [^14C]-labeled methyl a-D-lucopyranosid solution at 37° C. for 2 hours.
5) The data were read with an isotope detector Micro beta Reader.
6) The IC50 value of the tested compound was obtained by the calculation formula: log(inhibitor) vs. response—Variable slope, using GraphPad Prism 5.0 software.

The IC50 is the concentration needed to halve the response being measured. Read a high IC50 as lower potency. One may read the bioavailability as dose-corrected exposure relative to a reference, in per cent. Broadly, the Cmax is the peak of the concentration-time curve. On to `CCOc1ccc(Cc2cc([C@@H]3O[C@H](SC)[C@@H](O)[C@H](O)[C@H]3O)ccc2Cl)cc1` [Sotagliflozin, reference compound], for which, in series [1], inhibition was half-maximal at 1.15 nM (IC50). The “Oral DNAUC (AUCPO/Dose)” value in series [2] (oral 2 mg/kg) is reported as 969 nM · h/mpk. For the same molecule, the clearance in series [2] (rat, plasma, intravenous 1 mg/kg or oral 2 mg/kg, read-out: Cl (clearance rate)) was determined as 22.6 mL/min/kg. For the same molecule, the half-life in series [2] (rat, plasma, intravenous 1 mg/kg or oral 2 mg/kg, read-out: T1/2 (half-life) (converted)) was 1.27 h. Moreover, the Vd in series [2] (rat, plasma, intravenous 1 mg/kg or oral 2 mg/kg, read-out: Vdss (distribution volume)) was found to be 2.01 L/kg. Further, in series [2] (rat, plasma, intravenous 1 mg/kg, oral 2 mg/kg, read-out: F % (oral bioavailability)), the bioavailability is 54.8%. Moreover, in series [2] (rat, single administration, intravenous 1 mg/kg or oral 2 mg/kg, plasma), the Cmax was determined as 364 nM. The OGTT blood glucose level AUC0-2 hr in series [3] (glucose 2 g/kg) was 823 mmol/L/min; in series [4] (glucose 2 g/kg), 790 mmol/L/min. Also, the Urine glucose level is on record as 2424.0**** mg/200 g, BW in series [3] (urine 0-24 h) and 2843.2**** mg/200 g, BW in series [4] (urine 0-24 h). The Urine volume in series [3] (urine 0-24 h) was 39.74**** mL/200 gBW; in series [4] (urine 0-24 h), 26.4**** mL/200 g, BW.
Turning to `CS[C@H]1O[C@@H](c2ccc(C)c(Cc3ccc(C4=CCC5(CC4)OCCO5)cc3)c2)[C@H](O)[C@@H](O)[C@@H]1O` [WXD002], the IC50 in series [5] was 55.6 nM; in series [1], 1.01 nM.
Turning to `CS[C@H]1OC(c2ccc(C)c(Cc3ccc(C4=CCOCC4)cc3)c2)[C@H](O)[C@@H](O)[C@@H]1O` (stereo partly drawn) [WXD004], the concentration for half-maximal inhibition (IC50) in series [5] amounted to 14.1 nM; in series [1], 1.49 nM.
Consider `CS[C@H]1OC(c2ccc(C)c(Cc3ccc(C4=CCCCC4)cc3)c2)[C@H](O)[C@@H](O)[C@@H]1O` (stereo partly drawn) [WXD005], for which the values for the IC50 in series [5] and in series [1] were 21.9 nM and 1.78 nM, respectively.
With `CS[C@H]1O[C@@H](c2ccc(C)c(Cc3ccc(C4=CCC(F)(F)CC4)s3)c2)[C@H](O)[C@@H](O)[C@@H]1O` [WXD006], the IC50 in series [5] was found to be 39.2 nM; in series [1] it was 1.02 nM.
Regarding `CS[C@H]1O[C@@H](c2ccc(C)c(Cc3ccc(C4=CCOCC4)s3)c2)[C@H](O)[C@@H](O)[C@@H]1O` [WXD007], the figures for the IC50 in series [5] and in series [1] were 30.1 nM and 1.35 nM, respectively.
In the case of `COc1ccc(C2O[C@H](SC)[C@@H](O)[C@H](O)[C@H]2O)cc1Cc1ccc(C2=CCC(F)(F)CC2)cc1` (stereo partly drawn) [WXD008], the IC50 in series [5] was found to be 17.2 nM; in series [1] it was 5.4 nM.
With `CS[C@H]1OC(c2ccc(F)c(Cc3ccc(C4=CCC(F)(F)CC4)cc3)c2)[C@H](O)[C@@H](O)[C@@H]1O` (stereo partly drawn) [WXD009], the values for the IC50 in series [5] and in series [1] were 233 nM and 4.68 nM, respectively.
